The target in assay [1] is T1, P2Y receptor (turkey erythrocyte membranes) (Meleagris gallopavo, UniProt P49652).
T1 construct: from tissue; host or cells: washed turkey erythrocytes, ghosts prepared by hypotonic lysis
Briefly: Stimulation of phospholipase C (inositol phosphate formation) in turkey erythrocyte membranes. The format is biochemical. Particulars: turkey erythrocyte membranes. Put shortly: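 Erythrocytes were labelled 18-24 h at 37 °C with [3H]myoinositol, and ghosts were made by hypotonic lysis. Ghosts (≈175 μg protein) were incubated 5 min at 30 °C in Hepes buffer pH 7.0 with 1 μM GTPγS and nucleotide analogs. Total [3H]inositol phosphates were purified by anion exchange; K0.5 averaged from 3-8 dose-response curves.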

For assay [2], the target named is T2, P2Y receptor (taenia coli) (Cavia porcellus, UniProt P59902).
T2 construct: Relaxant responses mediated via P2Y receptors were examined in guinea pig taenia coli; from tissue; host or cells: guinea pig taenia coli (carbachol-contracted)
Description: Relaxation of carbachol-contracted guinea pig taenia coli. Particulars: guinea pig taenia coli. Put shortly: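 Guinea pig taenia coli precontracted with 50 nM carbachol; relaxation to applied P2Y agonists expressed as percentage relaxation against negative log molar agonist concentration.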

The target in assay [3] is T3, P2X receptor (saphenous artery) (Oryctolagus cuniculus, UniProt G1U3D6).
T3 construct: and rabbit saphenous artery; from tissue; host or cells: rabbit saphenous artery
T3 sequence (G1U3D6 1-399): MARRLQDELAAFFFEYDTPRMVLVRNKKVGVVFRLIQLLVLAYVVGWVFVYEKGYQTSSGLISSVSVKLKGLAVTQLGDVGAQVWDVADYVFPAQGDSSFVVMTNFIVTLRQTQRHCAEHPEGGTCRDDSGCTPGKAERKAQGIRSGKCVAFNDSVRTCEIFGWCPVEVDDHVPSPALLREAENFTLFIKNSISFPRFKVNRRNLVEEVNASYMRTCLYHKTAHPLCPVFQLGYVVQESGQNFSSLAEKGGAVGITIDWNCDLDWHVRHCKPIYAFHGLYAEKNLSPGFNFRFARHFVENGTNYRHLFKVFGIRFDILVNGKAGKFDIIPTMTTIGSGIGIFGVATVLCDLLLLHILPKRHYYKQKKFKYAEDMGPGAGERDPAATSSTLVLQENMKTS
Description: Contraction of rabbit saphenous artery. Put shortly:
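Contraction of isolated rabbit saphenous artery, standard organ-bath methods; responses at 10 μM expressed as percentage of contraction produced by 1 μM α,MeATP. Highest analogue concentrations tested were 3-30 […].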

Assay [4] deals with T4, P2X receptor (vas deferens) (Cavia porcellus, UniProt A0A286XVA9).
T4 sequence (A0A286XVA9 1-399): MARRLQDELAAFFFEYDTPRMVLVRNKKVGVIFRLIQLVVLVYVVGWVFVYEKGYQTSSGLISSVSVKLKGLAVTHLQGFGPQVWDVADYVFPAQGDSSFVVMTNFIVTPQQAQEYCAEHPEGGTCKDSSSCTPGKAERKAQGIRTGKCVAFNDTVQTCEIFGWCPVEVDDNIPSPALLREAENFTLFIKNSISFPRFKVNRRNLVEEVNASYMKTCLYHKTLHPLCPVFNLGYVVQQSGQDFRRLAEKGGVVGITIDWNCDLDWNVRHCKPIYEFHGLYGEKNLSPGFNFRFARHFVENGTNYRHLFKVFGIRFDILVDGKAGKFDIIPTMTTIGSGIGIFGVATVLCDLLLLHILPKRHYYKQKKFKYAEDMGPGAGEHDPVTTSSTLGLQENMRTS
Description: Contraction of guinea pig isolated vas deferens.
Description: (§1) Muscular relaxation/contraction: Relaxant responses mediated via P2Y receptors were examined in guinea pig taenia coli, rabbit aorta, and rabbit mesenteric artery, as described by Hoyle et al. (Br. J. Pharmacol., 107, 367-374 (1992a)), Burnstock et al., (Br. J. Pharmacol., 90, 383-391 (1987a)), and Rubino et al., (Eur. J. Pharmacol., 212, 237-240 (1992)). Contractile responses mediated via P2X receptors were examined in the guinea pig urinary bladder and vas deferens, and rabbit saphenous artery, also using standard methods (see Hoyle et al., supra., 1992; Hoyle et al., Br. J. Pharmacol., 99, 617-621 (1990); and Burnstock et al., Br. J. Pharmacol., 90, 111-120 (1987b)).
(§2) In FIG. 14, the x-axis is also marked in units of the negative log of the molar concentration of applied putative P2Y receptor agonists and the y-axis is marked in units of the percentage relaxation of the 1 μM noradrenalin-induced contraction of rabbit aorta endothelium. In FIGS. 15-16, the x-axis is marked in units of the negative log of the molar concentration of applied putative p^2X receptor agonists and the y-axis is marked in units of the percentage contraction relative to a standard dose of KCl (i.e., 60 mM), as assessed in guinea pig isolated urinary bladder detrussor muscle (FIG. 15) and guinea pig isolated vas deferens (FIG. 16).

The target in assay [5] is T5, P2X receptor (urinary bladder) (Cavia porcellus, UniProt A0A286XVA9).
T5 construct: guinea pig isolated urinary bladder detrussor muscle; from tissue; host or cells: guinea pig isolated urinary bladder detrusor muscle
Briefly: Contraction of guinea pig isolated urinary bladder detrussor muscle. The note with it: guinea pig urinary bladder.
Description: as §1, §2

The target of assay [6] is T2, P2Y receptor (taenia coli). Particulars: guinea pig taenia coli; log molar units; footnote e: literature data; cited from earlier work.
The target of assay [7] is T3, P2X receptor (saphenous artery). Particulars: Burnstock et al., 1987a; cited from earlier work.
The target in assay [8] is T4, P2X receptor (vas deferens). Particulars: guinea pig vas deferens; log molar units; footnote e: literature data; cited from earlier work.
In assay [9] the test system is P2X receptor (vas deferens). Particulars: Burnstock et al. 1985; cited from earlier work.
Assay [10] deals with T5, P2X receptor (urinary bladder). Particulars: cited from earlier work.

T1 sequence (P49652 whole entry): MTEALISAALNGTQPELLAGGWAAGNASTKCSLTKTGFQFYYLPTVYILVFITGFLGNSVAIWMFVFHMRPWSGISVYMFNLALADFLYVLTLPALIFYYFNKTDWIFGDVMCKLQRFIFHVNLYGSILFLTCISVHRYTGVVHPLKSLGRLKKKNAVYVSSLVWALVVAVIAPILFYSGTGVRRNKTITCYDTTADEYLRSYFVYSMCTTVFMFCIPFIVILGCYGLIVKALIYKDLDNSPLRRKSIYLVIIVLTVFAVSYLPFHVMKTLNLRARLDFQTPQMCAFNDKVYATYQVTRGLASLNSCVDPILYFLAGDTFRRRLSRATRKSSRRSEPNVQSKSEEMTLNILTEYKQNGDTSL
T2 sequence (P59902 whole entry): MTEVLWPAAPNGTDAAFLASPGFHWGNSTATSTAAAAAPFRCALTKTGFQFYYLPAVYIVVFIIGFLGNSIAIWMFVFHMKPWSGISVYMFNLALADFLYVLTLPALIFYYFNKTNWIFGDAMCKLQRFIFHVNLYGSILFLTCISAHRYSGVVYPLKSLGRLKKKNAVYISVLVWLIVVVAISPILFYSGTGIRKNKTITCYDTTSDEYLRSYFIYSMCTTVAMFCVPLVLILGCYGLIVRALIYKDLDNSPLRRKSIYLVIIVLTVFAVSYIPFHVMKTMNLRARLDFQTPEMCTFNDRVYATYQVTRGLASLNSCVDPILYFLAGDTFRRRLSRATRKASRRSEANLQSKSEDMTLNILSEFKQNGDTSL

On to `Nc1ncnc2c1ncn2[C@@H]1O[C@H](COP(=O)(O)CP(=O)(O)OP(=O)(O)O)[C@@H](O)[C@H]1O` [a,β-Me-ATP, α,β-methylene-ATP], for which the “activity/potency in words, turkey erythrocyte” value in assay [1] was “a very weak, yet full agonist”. Also, the EC50 in [1] (mean ± S.E.M. for at least 2 determinations, read-out: phosphatidyl inositol metabolism (K0.5, nM) erythrocyte) is more than 100000 nM. The “activity/potency in words, taenia coli” value in assay [2] is “reduced activity in the taenia coli”. Moreover, the “contraction produced by 1 μM, saphenous artery” value in assay [3] (rabbit saphenous artery, 1 μM) is “half maximal effect”. Besides, the activation at 10 µM in assay [3] (read-out: response at 10 μM relative to the contraction produced by 1 μM α,MeATP, saph. artery) was found to be 5.9%. In [4], the “activity/potency in words, vas deferens” value was “markedly enhanced activity”. In addition, in assay [5], the “activity/potency in words, bladder” value is reported as “markedly enhanced activity”. In assay [6], the “relaxation pD2, taenia coli” value was 5.6. In addition, the “activity in words, saphenous artery” value in [7] is “a potent constrictor”. Also, the “contraction pD2, vas” value in assay [8] was 5.3. Also, the “activity in words, vas deferens” value in assay [9] is “a potent constrictor”. Besides, in [10] (Burnstock et al. 1985), the “activity in words, urinary bladder” value is reported as “a potent constrictor”. In addition, the “contraction pD2, bladder” value in assay [10] (guinea pig urinary bladder, log molar units, footnote e: literature data) is listed as 5.7.

The values above are taken from US5620676A, “Biologically active ATP analogs” (priority 1995, dated 1997).
